Data on one compound can be found in patent US20130266636A1, “METHODS FOR BLOCKING CELL PROLIFERATION AND TREATING DISEASES AND CONDITIONS RESPONSIVE TO CELL GROWTH INHIBITION” (THE REGENTS OF THE UNIVERSITY OF CALIFORNIA, priority 2010, published 2013).

Each structure is given as a SMILES string. “Also recorded” adds a separate entry of the source.

Assay [1] addresses T1, phospho-S338 CRAF (Homo sapiens, UniProt P04049).
T1 construct: phospho-S338 CRAF in orthotopic brain tumor xenografts untreated or treated systemically with KG5; from tissue; host or cells: orthotopic U-87 glioblastoma xenografts in the brain of nude mice
Put plainly: Phospho-S338 CRAF staining in orthotopic brain tumor xenografts. The assay is classed as in vivo, mice. As to conditions: systemic KG5 50 mg/Kg, 3 days. Here is the method:
FIG. 41. Phospho-5338 CRAF is highly expressed in tumors and can be blocked by an allosteric RAF inhibitor: FIG. 41(a) Immunohistochemical staining of phospho-S338 CRAF in normal human brain and human glioblastoma tissues. Scale bar, 100 μm. FIG. 41(b) Immunohistochemical staining of phospho-S338 CRAF in orthotopic brain tumor xenografts untreated or treated systemically with KG5 (50 mg/Kg) for 3 days. Scale bar, 50 p.m. FIG. 42. Phospho-5338 CRAF promotes mitosis: FIG. 42(a) Quantification of WT and CRAF−/− cells in the G1, S and G2/M phases of the cell cycle. Data are representative of three independent experiments. […] Cells in G2/M were quantified by flow cytometry. […] FIG. 42(d) Cells at pro-metaphase were quantified using confocal microscopy. […] FIG. 42(e) HCT-116 cells were transfected with control or CRAF siRNAs and cells in G2/M were quantified by flow cytometry. […] Lysates of these cells were analyzed for CRAF expression by immunoblotting (inset). […] Quantification of cells in G2/M was performed by flow cytometry. […]
Tumors were generated by injection of RFP-labeled U-87 human glioblastoma cells (10^5 tumorcells in 2 μl of sterile PBS) into the brain of 6-8 week old female nude mice. […] Brains were harvested at day 15 and fluorescence images recorded using the IVIS-200™ imaging system (Xenogen Corp., Hopkinton, Mass.). […]

Assay [2] concerns the target CRAF (Homo sapiens, UniProt P04049). Put plainly: CRAF localization to the mitotic spindle, confocal microscopy of XPA-1 cells. Format: cell-based. The arrangement: total CRAF and total MEK of lysates from XPA-1 cells treated with PD0325901, Sorafenib, L-779450, PLX4720, KG5 or KG1; endogenous in cells; host or cells: XPA-1. From the text:
FIG. 35. […] Data are representative of three independent experiments. FIG. 35 (b) Confocal microscopy images of human pancreatic XPA-1 and glioblastoma U251 cells during mitosis, stained for phospho-5338 CRAF (in green), α-tubulin (in red) and DNA (TOPRO-3™ in blue). Scale bar, 10 μm. White arrows indicate localization of phospho-S338 CRAF at the mitotic spindle. FIG. 35 (c) Immunoblot analysis of γ-tubulin immunoprecipitates from human colon carcinoma HCT-116 cells asynchronized and synchronized at pro-metaphase. Data are representative of three independent experiments. FIG. 35(d) Immunohistochemical staining of phospho-S338 CRAF in tumor biopsies from breast cancer patients. Scale bar, 10 μm. FIG. 35(e) Confocal microscopy images of XPA-1 cells treated with KG5, sorafenib, ZM336372, L779450 or paclitaxel and stained for CRAF (in green), γ-tubulin (in red) and DNA (TOPRO-3™ in blue). Scale bar, 10 μm. White arrows indicate localization of CRAF at the spindle pole. White circle indicates the absence of CRAF at the spindle pole.
Cells attached to cover-slips were fixed with cold methanol and permeabilized in PBS containing 0.1% triton for two minutes and blocked for 60 minutes, at room temperature with 2% BSA in PBS. Cells were stained with antibodies to CRAF (Abcam), phospho-serine 338 CRAF (SantaCruz), phospho-serine 338 CRAF (Thermo Scientific), a tubulin (Calbiochem), γ tubulin (Abcam), laminB (SantaCruz), Plk1 (Abcam), phospho-T210 Plk1 (Abcam), or phospho-T288 Aurora A (cell signaling). All primary antibodies were used at 1:100 dilution, for two hours at room temperature. After washing several times with PBS, cells were stained for two hours at room temperature, with secondary antibody specific for mouse, rabbit or goat (Invitrogen), as appropriate, diluted 1:300 and co-incubated with the DNA dye TOPRO-3™ (1:500) (Invitrogen). Samples were mounted in VECTASHIELD™ hard-set mounting media (Vector Laboratories) and imaged on a Nikon ECLIPSE C1™ confocal microscope with a 1.4 NA 60× oil-immersion lens, using minimum pinhole (30 μm). Images were captured using EZ-C1-3.50 imaging software.

The test system of assay [3] is PDGFR. As to conditions: cited from earlier work.

CRAF, sequence (P04049 whole entry): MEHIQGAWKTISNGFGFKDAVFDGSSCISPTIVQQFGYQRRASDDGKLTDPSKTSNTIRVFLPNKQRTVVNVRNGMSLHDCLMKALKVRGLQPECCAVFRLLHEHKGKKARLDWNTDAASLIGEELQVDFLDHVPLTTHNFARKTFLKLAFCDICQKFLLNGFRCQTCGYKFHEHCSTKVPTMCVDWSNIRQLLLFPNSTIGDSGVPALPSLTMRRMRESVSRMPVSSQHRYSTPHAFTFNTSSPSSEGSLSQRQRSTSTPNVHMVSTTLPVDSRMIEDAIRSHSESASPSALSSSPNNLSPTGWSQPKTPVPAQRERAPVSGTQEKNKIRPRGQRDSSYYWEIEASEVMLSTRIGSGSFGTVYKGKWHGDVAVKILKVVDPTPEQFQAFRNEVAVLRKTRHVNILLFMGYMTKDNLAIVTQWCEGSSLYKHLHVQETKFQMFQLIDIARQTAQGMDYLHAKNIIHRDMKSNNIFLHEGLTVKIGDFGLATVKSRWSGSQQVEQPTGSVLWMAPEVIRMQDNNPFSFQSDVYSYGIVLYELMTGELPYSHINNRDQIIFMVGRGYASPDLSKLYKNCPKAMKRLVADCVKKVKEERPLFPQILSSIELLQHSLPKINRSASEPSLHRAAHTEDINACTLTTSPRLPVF
T1 sequence (P04049 whole entry): as above

Consider `CSc1nc(N)cc(Oc2ccc(-c3nnc(Nc4cccc(C(F)(F)F)c4)[nH]3)cc2)n1` [KG5], for which, in assay [1], the “phospho-S338 CRAF in orthotopic brain tumor tissues” value is “qualitative decrease in phospho-5338 RAF”. Further, in assay [2], the “CRAF localization to the mitotic spindle” value is given as “prevents CRAF recruitment to the mitotic spindle; also recorded: prevented this localization” and the “prevents phospho-S338 CRAF recruitment to the mitotic spindle” value is given as “prevents phospho-S338 CRAF recruitment to the mitotic spindle”. For the same compound, the “inhibition of PDGFR” value in assay [3] is “inhibits”.
